Our source for the T/C values is PubChem BioAssay AID330 (DTP/NCI, 2004).

Inconclusive results and toxic doses are left out.

The assay deals with P388 leukemia ip, CD2F1 mice, survival T/C. Nature of the assay: NCI In Vivo Anticancer Drug Screen. Data for tumor model P388 Leukemia (intraperitoneal) in CD2F1 (CDF1) mice. The following applies: endpoint: median survival time, higher = longer survival. In short, it runs like this:
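Mice carrying the transplanted tumor received test compound or vehicle. Survival was recorded in each group, and the value is the treated-group measurement divided by that of the vehicle-treated control group.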

Where [1] appears, read: dose: 100.0 mg/kg/injection, schedule: Q01DX001 (ip), vehicle: saline with Tween-80.
Where [2] appears, read: dose: 400.0 mg/kg/injection, schedule: Q01DX001 (ip), vehicle: saline with Tween-80.
Where [3] appears, read: dose: 60.0 mg/kg/injection, schedule: Q01DX005 (ip), vehicle: saline with Tween-80.
Where [4] appears, read: dose: 60.0 mg/kg/injection, schedule: Q01DX005 (ip), vehicle: saline.
The mark [5] stands for this setting: dose: 240.0 mg/kg/injection, schedule: Q01DX005 (ip), vehicle: saline.
Setting [6] is: dose: 200.0 mg/kg/injection, schedule: Q04DX003 (ip), vehicle: Klucel (hydroxypropylcellulose) (HPC).
Setting [7] is: dose: 200.0 mg/kg/injection, schedule: Q01DX001 (ip), vehicle: saline with Tween-80.
The mark [8] stands for this setting: dose: 200.0 mg/kg/injection, schedule: Q01DX001 (ip), vehicle: Klucel (hydroxypropylcellulose) (HPC).
[9] abbreviates: dose: 400.0 mg/kg/injection, schedule: Q01DX001 (ip), vehicle: Klucel (hydroxypropylcellulose) (HPC).
Where [10] appears, read: dose: 100.0 mg/kg/injection, schedule: Q01DX009 (ip), vehicle: saline with Tween-80.
The mark [11] stands for this setting: dose: 200.0 mg/kg/injection, schedule: Q01DX009 (ip), vehicle: saline with Tween-80.
The mark [12] stands for this setting: dose: 400.0 mg/kg/injection, schedule: Q01DX009 (ip), vehicle: saline with Tween-80.
Where [13] appears, read: dose: 50.0 mg/kg/injection, schedule: Q01DX005 (ip), vehicle: Klucel (hydroxypropylcellulose) (HPC).
Where [14] appears, read: dose: 100.0 mg/kg/injection, schedule: Q01DX005 (ip), vehicle: Klucel (hydroxypropylcellulose) (HPC).
Where [15] appears, read: dose: 200.0 mg/kg/injection, schedule: Q01DX005 (ip), vehicle: Klucel (hydroxypropylcellulose) (HPC).
Setting [16] is: dose: 50.0 mg/kg/injection, schedule: Q01DX009 (ip), vehicle: saline with Tween-80.

Take `NC1CC2(CCC1=O)c1ccccc1-c1ccccc12` (centres undefined): the T/C reads like this: under setting [1], 105 % of control; under setting [2], 102 % of control.
For the compound `COC(=O)c1cc(-c2ccc([N+](=O)[O-])cc2)n2c(N)nnc2n1`, the T/C was 92 % of control under setting [3] and 86 % of control (dose: 120.0 mg/kg/injection, schedule: Q01DX005 (ip), vehicle: saline with Tween-80).
`COC(=O)C1(CS(C)(=O)=O)NC(=S)NC(=O)C1C#N` (centres undefined): the T/C by setting is: under setting [4], 97 % of control; (dose: 120.0 mg/kg/injection, schedule: Q01DX005 (ip), vehicle: saline) 91 % of control; under setting [5], 91 % of control.
`S=C(N\N=C/C(/C=C/c1ccccc1)=N\NC(=S)Nc1ccc(Br)cc1)Nc1ccc(Br)cc1`: the T/C is, setting by setting: (dose: 100.0 mg/kg/injection, schedule: Q04DX002 (ip), vehicle: Klucel (hydroxypropylcellulose) (HPC)) 106 % of control; (dose: 200.0 mg/kg/injection, schedule: Q04DX002 (ip), vehicle: Klucel (hydroxypropylcellulose) (HPC)) 97 % of control; (dose: 400.0 mg/kg/injection, schedule: Q04DX002 (ip), vehicle: Klucel (hydroxypropylcellulose) (HPC)) 95 % of control.
Regarding `NC(=O)c1[nH]cnc1/N=N/N(CCCl)Cc1ccccc1`, the T/C is 122 % of control (dose: 44.0 mg/kg/injection, schedule: Q01DX009 (ip), vehicle: Klucel (hydroxypropylcellulose) (HPC)); 196 % of control (dose: 100.0 mg/kg/injection, schedule: Q01DX009 (ip), vehicle: Klucel (hydroxypropylcellulose) (HPC)); 196 % of control (dose: 150.0 mg/kg/injection, schedule: Q01DX009 (ip), vehicle: Klucel (hydroxypropylcellulose) (HPC)); 182 % of control under setting [6]; 256 % of control (dose: 400.0 mg/kg/injection, schedule: Q04DX003 (ip), vehicle: Klucel (hydroxypropylcellulose) (HPC)).
For the compound `C=C1C(=O)O[C@H]2CCC[C@@]12C`, the T/C reads like this: under setting [1], 103 % of control; under setting [7], 106 % of control; under setting [2], 113 % of control.
For `CCn1c(Cl)c(/C=C(/NC(=O)c2ccccc2)C(=O)O)c2ccccc21`, the T/C by setting is: (dose: 100.0 mg/kg/injection, schedule: Q01DX001 (ip), vehicle: Klucel (hydroxypropylcellulose) (HPC)) 100 % of control; under setting [8], 94 % of control; under setting [9], 94 % of control.
As for `COC(=O)c1cccc(OC)c1OC`, the T/C is, setting by setting: under setting [10], 109 % of control; under setting [11], 100 % of control; under setting [12], 109 % of control.
In the case of `NC(=O)c1[nH]ncc1C1OCCC1O` (centres undefined), the T/C was 100 % of control under setting [1], 100 % of control under setting [7] and 100 % of control under setting [2].
Take `Fc1ccc2nc3ccccc3c(SCCCCCCSc3c4ccccc4nc4ccc(F)cc34)c2c1`: the T/C reads like this: (dose: 60.0 mg/kg/injection, schedule: Q01DX005 (ip), vehicle: Klucel (hydroxypropylcellulose) (HPC)) 96 % of control; (dose: 120.0 mg/kg/injection, schedule: Q01DX005 (ip), vehicle: Klucel (hydroxypropylcellulose) (HPC)) 90 % of control.
Consider `Cc1nc(N)c2[nH]cnc2n1`, for which the T/C under setting [13] was 99 % of control, the T/C under setting [14] was 100 % of control and the T/C under setting [15] was 99 % of control.
Take `CCN(C(=O)CCl)C(C)(C)C(SSSC(c1ccc(Cl)cc1)C(C)(C)N(CC)C(=O)CCl)c1ccc(Cl)cc1` (centres undefined): the T/C is 104 % of control (dose: 50.0 mg/kg/injection, schedule: Q04DX003 (ip), vehicle: saline); 113 % of control (dose: 100.0 mg/kg/injection, schedule: Q04DX003 (ip), vehicle: saline); 109 % of control (dose: 200.0 mg/kg/injection, schedule: Q04DX003 (ip), vehicle: saline).
For the compound `CC(C)(Br)C(C)(C)OO`, the T/C runs as follows: (dose: 18.75 mg/kg/injection, schedule: Q04DX003 (ip), vehicle: Klucel (hydroxypropylcellulose) (HPC)) 104 % of control; (dose: 37.5 mg/kg/injection, schedule: Q04DX003 (ip), vehicle: Klucel (hydroxypropylcellulose) (HPC)) 112 % of control; (dose: 75.0 mg/kg/injection, schedule: Q04DX003 (ip), vehicle: Klucel (hydroxypropylcellulose) (HPC)) 104 % of control.
Consider `C/C(=N/N(C)C)c1ccc(Cl)cc1`, for which the T/C is 100 % of control (dose: 100.0 mg/kg/injection, schedule: Q01DX001 (ip), vehicle: saline); 108 % of control under setting [8]; 108 % of control (dose: 200.0 mg/kg/injection, schedule: Q01DX001 (ip), vehicle: saline); 106 % of control under setting [9]; 106 % of control (dose: 400.0 mg/kg/injection, schedule: Q01DX001 (ip), vehicle: saline).
In the case of `Cc1csc2ncnc(N)c12`, the T/C (dose: 50.0 mg/kg/injection, schedule: Q04DX003 (ip), vehicle: Klucel (hydroxypropylcellulose) (HPC)) was 106 % of control; the T/C (dose: 100.0 mg/kg/injection, schedule: Q04DX003 (ip), vehicle: Klucel (hydroxypropylcellulose) (HPC)) is 115 % of control; the T/C under setting [6] is 108 % of control.
For `CCN(CC)CCSC1CC2CC(C1C)C2(C)C` (centres undefined), the T/C under setting [13] is 99 % of control, the T/C under setting [14] was 109 % of control and the T/C under setting [15] is 104 % of control.
Regarding `CC(=O)c1nc(-c2ccccc2)[nH]c1C`, the T/C is, setting by setting: (dose: 25.0 mg/kg/injection, schedule: Q01DX009 (ip), vehicle: saline with Tween-80) 101 % of control; under setting [16], 104 % of control; under setting [10], 105 % of control; (dose: 100.0 mg/kg/injection, schedule: Q04DX003 (ip), vehicle: saline with Tween-80) 99 % of control; (dose: 200.0 mg/kg/injection, schedule: Q04DX003 (ip), vehicle: saline with Tween-80) 90 % of control.
For `CCOP1(=O)OC(c2ccccc2)C(C)N1C` (centres undefined), the T/C under setting [13] is 100 % of control, the T/C under setting [14] is 104 % of control and the T/C under setting [15] is 107 % of control.
Consider `COc1ccc2c(c1)OC(C)(C)C(c1ccccc1)=C2c1ccc(O)cc1`, for which the T/C (dose: 15.0 mg/kg/injection, schedule: Q01DX005 (ip), vehicle: saline with Tween-80) is 97 % of control; the T/C (dose: 30.0 mg/kg/injection, schedule: Q01DX005 (ip), vehicle: saline with Tween-80) was 92 % of control; the T/C under setting [3] is 95 % of control.
In the case of `O=C(O)C1=C(/C=C/Cl)CC1`, the T/C under setting [16] was 102 % of control, the T/C under setting [10] is 96 % of control and the T/C under setting [11] is 99 % of control.
For `CO/N=C1/C=CC(Cl)=C/C1=C(\c1ccccc1Cl)C(C#N)c1ccccc1Cl` (centres undefined), the T/C reads like this: under setting [1], 94 % of control; under setting [7], 102 % of control; under setting [2], 92 % of control.
On to `COc1nc2c(nc(N)n2C2OC(COC(C)=O)C(OC(C)=O)C(OC(C)=O)C2OC(C)=O)c(=O)n1C` (centres undefined), for which the T/C runs as follows: under setting [4], 92 % of control; under setting [5], 92 % of control.
For the compound `COc1cc(NC(C)CCCN)c2ncc(Br)cc2c1` (centres undefined), the T/C runs as follows: (dose: 6.25 mg/kg/injection, schedule: Q01DX005 (ip), vehicle: saline) 95 % of control; (dose: 12.5 mg/kg/injection, schedule: Q01DX005 (ip), vehicle: saline) 91 % of control.
On to `CCCCC(CC)C(=O)[O][Sn]([CH2]CCC)([CH2]CCC)[O]C(=O)C(CC)CCCC` (centres undefined), for which the T/C is 104 % of control (dose: 1.5 mg/kg/injection, schedule: Q01DX009 (ip), vehicle: saline sonified); 95 % of control (dose: 3.0 mg/kg/injection, schedule: Q01DX009 (ip), vehicle: saline sonified); 118 % of control (dose: 6.0 mg/kg/injection, schedule: Q01DX009 (ip), vehicle: saline sonified).
As for `COc1cc([C@@H]2c3cc4c(cc3[C@H](O)[C@H]3COC[C@@H]23)OCO4)cc(OC)c1OC`, the T/C is 103 % of control (dose: 50.0 mg/kg/injection, schedule: Q01DX005 (ip), vehicle: saline with Tween-80); 108 % of control (dose: 100.0 mg/kg/injection, schedule: Q01DX005 (ip), vehicle: saline with Tween-80); 103 % of control (dose: 200.0 mg/kg/injection, schedule: Q01DX005 (ip), vehicle: saline with Tween-80).
For the compound `O=[N+]([O-])c1cccc(/C=C/C=C/c2cccc(S(=O)(=O)F)c2)c1`, the T/C under setting [10] was 90 % of control, the T/C under setting [11] is 86 % of control and the T/C under setting [12] was 86 % of control.
